Test results reported in patent US10294202B2, “Pyrrolidinones as herbicides” (FMC Corporation, priority 2013, dated 2019).

What was measured:
[1] = tested on: galium; experiment: Test A postemergence herbicide test; assay type: in vivo, Galium aparine; conditions: for Plant response rating, Galium: 125 g ai/ha, 0 to 100 scale; for Galium plant response rating (0 to 100 scale, 0 is no effect, 100 is complete control): 500 g ai/ha
Outline: (§1)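 Ratings compare treated with untreated plants roughly 10 days after a postemergence application made at the one- to two-leaf stage. Scoring uses 0–100, where 0 means no effect and 100 complete control.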

[2] = tested on: pigweed; experiment: Test A pre-/postemergence herbicide test; assay type: in vivo, Amaranthus retroflexus; conditions: for Plant response rating, Pigweed: 0 to 100 scale
Outline: (§2)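 Directed soil spray to seeded pots (preemergence) or spray onto one- to two-leaf seedlings 2–10 cm tall (postemergence); loam/sand substrate throughout. Evaluated visually after about 10 days against untreated plants, 0 = no effect, 100 = complete control.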

[3] = tested on: kochia; experiment: Test A pre-/postemergence herbicide test; assay type: in vivo, Kochia scoparia; conditions: for Plant response rating, Kochia: 0 to 100 scale
Outline: as §2

[4] = tested on: corn; experiment: Test A pre-/postemergence herbicide test; assay type: in vivo, Zea mays; conditions: Postemergence; for Plant response rating, Corn: 125 g ai/ha, 0 to 100 scale; for Corn plant response rating (0 to 100 scale, 0 is no effect, 100 is complete control): 500 g ai/ha
Outline: as §2

[5] = tested on: ryegrass, Italian; experiment: Test A pre-/postemergence herbicide test; assay type: in vivo, Lolium multiflorum; conditions: for Plant response rating, Ryegrass, Italian: 0 to 100 scale
Outline: as §2

[6] = tested on: wheat; experiment: Test A pre-/postemergence herbicide test; assay type: in vivo, Triticum aestivum; conditions: Postemergence; for Plant response rating, Wheat: 125 g ai/ha, 0 to 100 scale; for Wheat plant response rating (0 to 100 scale, 0 is no effect, 100 is complete control): 500 g ai/ha
Outline: as §2

[7] = tested on: barnyardgrass; experiment: Test B flooded paddy test; assay type: in vivo, Echinochloa crus-galli; conditions: Flood, scale of 0 to 100 where 0 is no effect and 100 is complete control
Outline: (§3)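 Paddy-water application at a 3 cm flood, young plants having two leaves. Water level maintained; greenhouse, 13–15 days; visual 0–100 control rating.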

[8] = tested on: blackgrass; experiment: Test A postemergence herbicide test; assay type: in vivo, Alopecurus myosuroides; conditions: for Plant response rating, Blackgrass: 125 g ai/ha, 0 to 100 scale; for Blackgrass plant response rating (0 to 100 scale, 0 is no effect, 100 is complete control): 500 g ai/ha
Outline: as §1

[9] = tested on: ducksalad; experiment: Test B flooded paddy test; assay type: in vivo, Heteranthera limosa; conditions: Flood, scale of 0 to 100 where 0 is no effect and 100 is complete control
Outline: as §3

[10] = tested on: rice; experiment: Test B flooded paddy test; assay type: in vivo, Oryza sativa; conditions: Flood, scale of 0 to 100 where 0 is no effect and 100 is complete control
Outline: as §3

[11] = tested on: ragweed; experiment: Test A pre-/postemergence herbicide test; assay type: in vivo, Ambrosia elatior; conditions: for Plant response rating, Ragweed: 0 to 100 scale
Outline: as §2

[12] = tested on: sedge, umbrella; experiment: Test B flooded paddy test; assay type: in vivo, Cyperus difformis; conditions: Flood, scale of 0 to 100 where 0 is no effect and 100 is complete control
Outline: as §3

[13] = tested on: giant foxtail; experiment: Test A pre-/postemergence herbicide test; assay type: in vivo, Setaria faberii; conditions: for Plant response rating, Foxtail, Giant: 0 to 100 scale
Outline: as §2

[14] = tested on: barnyardgrass; experiment: Test A pre-/postemergence herbicide test; assay type: in vivo, Echinochloa crus-galli
Outline: as §2

[15] = 0 no effect, 100 complete control
[16] = 125 g ai/ha, visual rating, 0 no effect, 100 complete control, approximately 10 days, preemergence
[17] = Postemergence, 125 g ai/ha, 0 no effect, 100 complete control
[18] = 125 g ai/ha, visual rating, 0 to 100 scale, 0 no effect, 100 complete control, approximately 10 days, preemergence
[19] = Postemergence, 125 g ai/ha, 0 to 100 scale, 0 no effect, 100 complete control
[20] = preemergence, 500 g ai/ha, 0 to 100 scale (0 no effect, 100 complete control)
[21] = 0 is no effect, 100 is complete control
[22] = Postemergence, 125 g ai/ha, 0 is no effect, 100 is complete control
[23] = preemergence, 500 g ai/ha, 0 is no effect and 100 is complete control

Compound | Plant response rating, Galium [1, 15] | Galium plant response rating (0 to 100 scale, 0 is no effect, 100 is complete control) [1] | Plant response rating, Pigweed [2, 16] | Plant response rating, Pigweed [2, 17] | Pigweed plant response rating (0 to 100 scale, 0 is no effect, 100 is complete control) ([2]; Postemergence, 500 g ai/ha) | Plant response rating, Pigweed ([2]; preemergence, 500 g ai/ha) | Plant response rating, Kochia [3, 16] | Plant response rating, Kochia [3, 17] | Kochia plant response rating (0 to 100 scale, 0 is no effect, 100 is complete control) ([3]; Postemergence, 500 g ai/ha) | Corn plant response rating (0 to 100 scale, 0 is no effect, 100 is complete control) [4] | Plant response rating, Ryegrass, Italian [5, 16] | Ryegrass, Italian plant response rating (0 to 100 scale, 0 is no effect, 100 is complete control) ([5]; Postemergence, 500 g ai/ha) | Wheat plant response rating (0 to 100 scale, 0 is no effect, 100 is complete control) [6] | Blackgrass plant response rating (0 to 100 scale, 0 is no effect, 100 is complete control) [8] | Plant response rating, Ragweed [11, 16] | Ragweed plant response rating (0 to 100 scale, 0 is no effect, 100 is complete control) ([11]; Postemergence, 500 g ai/ha) | Plant response rating, Foxtail, Giant [13, 16] | Foxtail, Giant plant response rating (0 to 100 scale, 0 is no effect, 100 is complete control) ([13]; Postemergence, 500 g ai/ha) | Plant response rating, Barnyardgrass [14, 18] | Barnyardgrass plant response rating (0 to 100 scale, 0 is no effect, 100 is complete control) ([14]; Postemergence, 500 g ai/ha) | further results
Cc1ccc(C2CNC(=O)C2C(=O)Nc2cccc(F)c2F)cc1F (racemic) [Compound 146] | 40 | 70 | 0 | 0 | 0 | 0 | 0 | 0 | 70 | 50 | 0 | 60 | 70 | 70 | 0 | 60 | 80 | 70 | 90 | 90 | Plant response rating, Kochia ([3]; preemergence, 500 g ai/ha): 30; Plant response rating, Corn [4, 15]: 0; Plant response rating, Ryegrass, Italian [5, 17]: 20; Plant response rating, Ryegrass, Italian ([5]; preemergence, 500 g ai/ha): 40; Plant response rating, Wheat [6, 15]: 0; Plant response rating, Barnyardgrass ([7]; 500 g ai/ha): 80; Plant response rating, Blackgrass [8, 15]: 30; Plant response rating, Ducksalad ([9]; 500 g ai/ha): 100; Plant response rating, Rice ([10]; 500 g ai/ha): 0; Plant response rating, Ragweed [11, 17]: 0; Plant response rating, Ragweed ([11]; preemergence, 500 g ai/ha): 30; Plant response rating, Sedge, Umbrella ([12]; 500 g ai/ha): 0; Plant response rating, Foxtail, Giant [13, 17]: 0; Plant response rating, Foxtail, Giant ([13]; preemergence, 500 g ai/ha): 90; Plant response rating, Barnyardgrass [14, 19]: 90; Plant response rating, Barnyardgrass [14, 20]: 90
O=C1NCC(c2cccc(S(F)(F)(F)(F)F)c2)C1C(=O)Nc1ccccc1C(F)(F)F (stereo not drawn) [Compound 215] | – | 60 | 0 | – | 60 | – | 0 | – | 0 | 0 | 0 | 0 | 0 | 50 | 0 | 10 | 80 | 80 | 60 | 60 | Plant response rating, Galium [1, 21]: 40; Plant response rating, Pigweed [2, 22]: 50; Plant response rating, Pigweed [2, 23]: 50; Plant response rating, Kochia [3, 22]: 0; Plant response rating, Kochia [3, 23]: 0; Plant response rating, Corn [4, 21]: 0; Plant response rating, Ryegrass, Italian [5, 22]: 0; Plant response rating, Ryegrass, Italian [5, 23]: 10; Plant response rating, Wheat [6, 21]: 0; Plant response rating, Barnyardgrass ([7]; 1000 g ai/ha): 60; Plant response rating, Blackgrass [8, 21]: 30; Plant response rating, Ducksalad ([9]; 1000 g ai/ha): 80; Plant response rating, Rice ([10]; 1000 g ai/ha): 0; Plant response rating, Ragweed [11, 22]: 0; Plant response rating, Ragweed [11, 23]: 0; Plant response rating, Sedge, Umbrella ([12]; 1000 g ai/ha): 0; Plant response rating, Foxtail, Giant [13, 22]: 80; Plant response rating, Foxtail, Giant [13, 23]: 90; Plant response rating, Barnyardgrass ([14]; Postemergence, 125 g ai/ha, 0 to 100 scale, 0 is no effect, 100 is complete control): 50; Plant response rating, Barnyardgrass ([14]; preemergence, 500 g ai/ha, 0 to 100 scale, 0 is no effect and 100 is complete control): 80
Cc1cc(C2CNC(=O)C2C(=O)Nc2ccc(F)c(F)c2F)ccc1F (racemic) [Compound 142] | 0 | 40 | 0 | 0 | 0 | 0 | 0 | 0 | 0 | 0 | 0 | 20 | 20 | 30 | 0 | 0 | 70 | 50 | 90 | 90 | Plant response rating, Kochia ([3]; preemergence, 500 g ai/ha): 0; Plant response rating, Corn [4, 15]: 0; Plant response rating, Ryegrass, Italian [5, 17]: 0; Plant response rating, Ryegrass, Italian ([5]; preemergence, 500 g ai/ha): 0; Plant response rating, Wheat [6, 15]: 0; Plant response rating, Barnyardgrass ([7]; 500 g ai/ha): 75; Plant response rating, Blackgrass [8, 15]: 0; Plant response rating, Ducksalad ([9]; 500 g ai/ha): 100; Plant response rating, Rice ([10]; 500 g ai/ha): 0; Plant response rating, Ragweed [11, 17]: 0; Plant response rating, Ragweed ([11]; preemergence, 500 g ai/ha): 0; Plant response rating, Sedge, Umbrella ([12]; 500 g ai/ha): 0; Plant response rating, Foxtail, Giant [13, 17]: 0; Plant response rating, Foxtail, Giant ([13]; preemergence, 500 g ai/ha): 90; Plant response rating, Barnyardgrass [14, 19]: 80; Plant response rating, Barnyardgrass [14, 20]: 90
Cc1ccc(C2CNC(=O)C2C(=O)Nc2ccc(F)c(F)c2F)cc1F (racemic) [Compound 147] | 50 | 60 | 0 | 0 | 10 | 0 | 30 | 40 | 60 | 50 | 0 | 50 | 40 | 60 | 0 | 50 | 80 | 70 | 90 | 90 | Plant response rating, Kochia ([3]; preemergence, 500 g ai/ha): 80; Plant response rating, Corn [4, 15]: 0; Plant response rating, Ryegrass, Italian [5, 17]: 20; Plant response rating, Ryegrass, Italian ([5]; preemergence, 500 g ai/ha): 40; Plant response rating, Wheat [6, 15]: 0; Plant response rating, Barnyardgrass ([7]; 500 g ai/ha): 70; Plant response rating, Blackgrass [8, 15]: 40; Plant response rating, Ducksalad ([9]; 500 g ai/ha): 100; Plant response rating, Rice ([10]; 500 g ai/ha): 0; Plant response rating, Ragweed [11, 17]: 0; Plant response rating, Ragweed ([11]; preemergence, 500 g ai/ha): 50; Plant response rating, Sedge, Umbrella ([12]; 500 g ai/ha): 0; Plant response rating, Foxtail, Giant [13, 17]: 40; Plant response rating, Foxtail, Giant ([13]; preemergence, 500 g ai/ha): 90; Plant response rating, Barnyardgrass [14, 19]: 90; Plant response rating, Barnyardgrass [14, 20]: 90
